What was measured:
[1] = target: Adenosine receptor A2a (Homo sapiens) (UniProt P29274); experiment: Displacement of [3H]CGS21680 from human recombinant adenosine A2A receptor expressed in HEK293 cells at 10 uM; assay type: cell-based
[2] = target: T1, Adenosine receptor A3 (Homo sapiens) (UniProt P0DMS8); experiment: Displacement of [125I]I-AB-MECA from human recombinant adenosine A3 receptor expressed in CHO cells at 10 uM; assay type: cell-based
T1 sequence (whole entry): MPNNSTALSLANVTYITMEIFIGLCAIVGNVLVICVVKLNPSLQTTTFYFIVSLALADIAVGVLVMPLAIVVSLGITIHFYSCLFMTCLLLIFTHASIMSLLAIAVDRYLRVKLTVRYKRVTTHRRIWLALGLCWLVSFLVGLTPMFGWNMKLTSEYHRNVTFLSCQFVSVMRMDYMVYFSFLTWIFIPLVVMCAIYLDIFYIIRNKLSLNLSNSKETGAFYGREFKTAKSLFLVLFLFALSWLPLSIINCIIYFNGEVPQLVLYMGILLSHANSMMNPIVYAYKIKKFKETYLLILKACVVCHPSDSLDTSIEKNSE

[3] = target: T2, Adenosine receptor A1 (Homo sapiens) (UniProt P30542); experiment: Displacement of [3H]CCPA from human recombinant adenosine A1 receptor expressed in CHO cells at 10 uM; assay type: cell-based
T2 sequence (whole entry): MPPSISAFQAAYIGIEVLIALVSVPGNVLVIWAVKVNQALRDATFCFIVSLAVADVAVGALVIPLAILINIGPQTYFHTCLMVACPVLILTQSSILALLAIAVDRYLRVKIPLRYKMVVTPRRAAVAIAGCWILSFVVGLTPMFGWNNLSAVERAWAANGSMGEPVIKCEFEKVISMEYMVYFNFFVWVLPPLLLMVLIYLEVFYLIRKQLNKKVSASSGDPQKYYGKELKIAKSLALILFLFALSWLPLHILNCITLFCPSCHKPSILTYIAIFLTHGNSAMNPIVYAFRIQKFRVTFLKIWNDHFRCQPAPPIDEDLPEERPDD

[4] = target: T1, Adenosine receptor A3 (Homo sapiens); experiment: Decrease in dissociation of [125I]I-AB-MECA from human recombinant adenosine A3 receptor expressed in CHO cells at 10 uM after 60 mins relative to control; assay type: cell-based; design: scale not given: the % may be the effect or the level left
[5] = target: T1, Adenosine receptor A3 (Homo sapiens); experiment: Increase in efficacy of stimulation of [35S]GTPgammaS binding to human adenosine A3 receptor expressed in CHO cells at 10 uM by liquid scintillation counting relative to C1-IB-MECA; assay type: functional, cell-based

Chain of Adenosine receptor A2a (Homo sapiens) (P29274 whole entry): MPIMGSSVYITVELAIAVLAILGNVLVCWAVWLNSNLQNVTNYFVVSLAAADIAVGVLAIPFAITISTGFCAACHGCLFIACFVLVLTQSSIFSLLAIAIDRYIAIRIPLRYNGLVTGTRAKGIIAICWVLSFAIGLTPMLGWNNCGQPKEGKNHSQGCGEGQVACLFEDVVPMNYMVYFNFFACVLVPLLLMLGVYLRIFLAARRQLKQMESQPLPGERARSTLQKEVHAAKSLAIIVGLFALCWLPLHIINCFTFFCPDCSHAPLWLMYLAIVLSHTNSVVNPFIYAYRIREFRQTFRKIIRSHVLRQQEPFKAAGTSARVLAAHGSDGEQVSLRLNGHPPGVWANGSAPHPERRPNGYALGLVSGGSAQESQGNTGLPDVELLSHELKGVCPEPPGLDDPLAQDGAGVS

Compound | Activity [1] [%] | Activity [2] [%] | Activity [3] [%] | Activity [4] [%] | Activity [5] [%]
Clc1ccc(Nc2nc3ccccc3c3[nH]c(C4CCN(Cc5ccccc5)CC4)nc23)cc1Cl | -3.1 | 46.3 | 17.8 | 93 | 
Fc1ccc(Nc2nc3ccccc3c3[nH]c(C4CCCCC4)nc23)cc1F | 26.5 | 68.8 | 14.6 | 187 | 197
c1cncc(Nc2nc3ccccc3c3[nH]c(C4CCCCC4)nc23)c1 | 78.1 | 64.8 | 73.1 | 114 | 119
Clc1ccc(Nc2nc3ccccc3c3[nH]c(C45CC6CC(CC(C6)C4)C5)nc23)cc1Cl | -4.4 | 17.2 | 13.8 | 196 | 
O=C(c1ccccc1)N1CCC(c2nc3c(Nc4ccc(Cl)c(Cl)c4)nc4ccccc4c3[nH]2)CC1 | 8.8 | 29.8 | 20.2 | 91 | 
FC(F)(F)c1cc(Nc2nc3ccccc3c3nc(C4CCCCC4)[nH]c23)cc(C(F)(F)F)c1 | 15.6 | 21.8 | 7.2 | 137 | 143
Clc1ccc(Nc2nc3ccccc3c3[nH]c(C4CCCC4)nc23)cc1Cl | 0 |  |  |  | 
Clc1ccc(Nc2nc3ccccc3c3[nH]c(C4CCCCC4)nc23)c(Cl)c1 | 67.2 | 43.9 | 48 | 174 | 187
N#Cc1ccc(Nc2nc3ccccc3c3nc(C4CCCCC4)[nH]c23)cc1C#N | 37.2 | 42.2 | 33.1 | 129 | 138
Clc1cccc(Nc2nc3ccccc3c3[nH]c(C4CCCCC4)nc23)c1 | 42.8 | 79.2 | 53.3 | 194 | 200
Clc1ccc(Nc2nc3ccccc3c3[nH]c(C45CC6CC(CC4C6)C5)nc23)cc1Cl | -17.3 | 3.3 | 14.5 | 139 | 
O=C(c1ccccc1)N1CCC(c2nc3c(Nc4ccccc4)nc4ccccc4c3[nH]2)CC1 | 43.4 | 35.3 | 12.4 | 92 | 
c1ccc2c(c1)nc(Nc1ccc3c(c1)OCO3)c1nc(C3CCCCC3)[nH]c12 | 49 | 83.9 | 65.4 | 185 | 166
Clc1cc(Cl)cc(Nc2nc3ccccc3c3[nH]c(C4CCCCC4)nc23)c1 | -11.4 | 32.7 | 16.7 | 184 | 209
COc1ccc(Nc2nc3ccccc3c3[nH]c(C4CCCCC4)nc23)cc1OC | 93.8 | 98.4 | 75.6 | 173 | 182
Fc1cc(F)cc(Nc2nc3ccccc3c3[nH]c(C4CCCCC4)nc23)c1 | 17.2 | 70.1 | 36.6 | 188 | 171

The remaining lines, values ahead:

Activity [1] [%] | Activity [2] [%] | Activity [3] [%] | Activity [4] [%] | Activity [5] [%] | Compound
-11.2 |  | 37 |  |  | Clc1ccc(Nc2nc3ccccc3c3nc(C4CCCCC4)[nH]c23)cc1Cl
7 | 52.8 | 10.9 | 101 |  | Clc1ccc(Nc2nc3ccccc3c3[nH]c(C4CCNCC4)nc23)cc1Cl
5.8 | 61.2 | 77.9 | 187 |  | Clc1ccc(Nc2nc3ccccc3c3[nH]c([C@H]4C[C@H]5CC[C@@H]4C5)nc23)cc1Cl
-2.2 |  | -4.2 |  |  | Clc1ccc(Nc2nc3ccccc3c3[nH]c(C4CCCCCC4)nc23)cc1Cl
56.8 | 5.6 | 21.4 | 102 |  | O=C1c2ccccc2C(=O)N1[C@H]1CC[C@@H](c2nc3c(Nc4ccc(Cl)c(Cl)c4)nc4ccccc4c3[nH]2)CC1
 |  | -5.2 |  |  | Clc1ccc(Nc2nc3ccccc3c3[nH]c(C4CCC4)nc23)cc1Cl
39.4 | 50.5 | 44.8 | 168 |  | Clc1ccc(Nc2nc3ccccc3c3[nH]c([C@H]4C[C@H]5CC[C@H]4C5)nc23)cc1Cl
-11.9 | 69.6 | 37.2 | 115 |  | Clc1ccc(Nc2nc3ccccc3c3[nH]c(C4CCOCC4)nc23)cc1Cl
15.8 | 4.2 | 31.7 | 107 |  | N[C@H]1CC[C@@H](c2nc3c(Nc4ccc(Cl)c(Cl)c4)nc4ccccc4c3[nH]2)CC1

Source: ChEMBL document CHEMBL1153383, “Novel 2- and 4-substituted 1H-imidazo[4,5-c]quinolin-4-amine derivatives as allosteric modulators of the A3 adenosine receptor” (J Med Chem, 2009)
